According to patent US7704946B2, “Reversible inhibition of pyramidal gap junction activity” (Caritas St. Elizabeth's Medical Center, priority 2006, dated 2010):

Test system: pyramidal gap junctions
Assay: Patch clamp recordings of electrically coupled pyramidal pairs in cortical slices, bath-applied soluble Aβ
Format: cell-based, rats and ferrets
Conditions: for washout time to restore gap junctional activity (reversibility): peptide washout

| Substance | inhibition of pyramidal gap junction activity, compared between species | washout time to restore gap junctional activity (reversibility) [min] | reduction of postjunctional responses (1 μM bath-applied for 10 minutes, FIG. 2) [%] | effect on presynaptic action potentials (application of Aβ1-40, FIG. 2) |
| --- | --- | --- | --- | --- |
| β-Amyloid [25-35] (GSNKGAIIGLM) [Aβ25-35] | same effect as Aβ 1-40 and Aβ 1-42 | 10 | – | – |
| β-Amyloid [Aβ1-40, β-Amyloid [1-40]] | – | 10 | ~50 | not influenced |
